We go through eight molecules from ChEMBL document CHEMBL5291721, “A preclinical secondary pharmacology resource illuminates target-adverse drug reaction associations of marketed drugs” (Nat Commun, 2023).

Molecules are shown by their SMILES. Bounds are passed on as bounds.

Assay [1] addresses cGMP-inhibited 3',5'-cyclic phosphodiesterase 3A (Homo sapiens, UniProt Q14432). The assay is classed as functional.
Assay [2] deals with T1, Thromboxane A2 receptor (Homo sapiens, UniProt P21731).
T1 sequence (P21731 whole entry): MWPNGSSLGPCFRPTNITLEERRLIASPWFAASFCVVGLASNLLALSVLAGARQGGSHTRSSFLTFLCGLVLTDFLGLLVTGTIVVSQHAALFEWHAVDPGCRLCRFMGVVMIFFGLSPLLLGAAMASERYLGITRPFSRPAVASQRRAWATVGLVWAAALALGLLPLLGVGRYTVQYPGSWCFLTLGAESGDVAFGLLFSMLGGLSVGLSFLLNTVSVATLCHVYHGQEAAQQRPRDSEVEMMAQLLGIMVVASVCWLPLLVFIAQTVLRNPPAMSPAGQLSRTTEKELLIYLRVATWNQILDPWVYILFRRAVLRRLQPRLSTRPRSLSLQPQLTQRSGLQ
The format is functional, cell-based.

Assay [3] addresses T1, Thromboxane A2 receptor. The format is functional, cell-based. The source holds these as a separate data set.
Assay [4] addresses Sodium-dependent dopamine transporter (Homo sapiens, UniProt Q01959).
The target in assay [5] is T2, 5-hydroxytryptamine receptor 1A (Homo sapiens, UniProt P08908).
T2 sequence (P08908 whole entry): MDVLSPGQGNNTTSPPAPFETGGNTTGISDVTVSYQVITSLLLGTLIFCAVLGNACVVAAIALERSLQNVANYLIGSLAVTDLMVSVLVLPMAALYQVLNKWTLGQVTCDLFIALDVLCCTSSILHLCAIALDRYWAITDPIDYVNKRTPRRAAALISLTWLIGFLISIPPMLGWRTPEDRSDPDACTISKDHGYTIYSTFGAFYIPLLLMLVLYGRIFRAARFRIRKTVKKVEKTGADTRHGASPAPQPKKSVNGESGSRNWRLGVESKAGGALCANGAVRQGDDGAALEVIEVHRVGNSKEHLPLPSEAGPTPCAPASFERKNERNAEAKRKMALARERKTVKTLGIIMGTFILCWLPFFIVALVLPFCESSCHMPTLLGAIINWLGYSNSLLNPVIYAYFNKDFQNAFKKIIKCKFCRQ

Assay [6] addresses 3',5'-cyclic-AMP phosphodiesterase 4A (Homo sapiens, UniProt P27815). The assay is classed as functional.
The target in assay [7] is 5-hydroxytryptamine receptor 2B (Homo sapiens, UniProt P41595). The format is functional, cell-based.
5-hydroxytryptamine receptor 2B, sequence (P41595 whole entry): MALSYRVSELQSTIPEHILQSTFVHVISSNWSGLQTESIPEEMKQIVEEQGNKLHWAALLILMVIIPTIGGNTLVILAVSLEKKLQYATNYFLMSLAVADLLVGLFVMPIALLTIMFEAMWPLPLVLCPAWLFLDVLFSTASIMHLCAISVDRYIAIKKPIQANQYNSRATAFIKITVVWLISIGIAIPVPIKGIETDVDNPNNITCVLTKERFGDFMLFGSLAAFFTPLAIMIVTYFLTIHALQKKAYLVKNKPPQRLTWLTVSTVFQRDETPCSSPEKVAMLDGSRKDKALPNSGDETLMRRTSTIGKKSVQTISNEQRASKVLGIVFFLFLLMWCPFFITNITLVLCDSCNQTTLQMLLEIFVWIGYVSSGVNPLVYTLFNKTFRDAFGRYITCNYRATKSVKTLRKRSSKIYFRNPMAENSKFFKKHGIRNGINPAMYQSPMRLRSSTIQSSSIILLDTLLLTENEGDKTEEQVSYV
The target in assay [8] is T3, Alpha-2A adrenergic receptor (Homo sapiens, UniProt P08913).
T3 sequence (P08913 whole entry): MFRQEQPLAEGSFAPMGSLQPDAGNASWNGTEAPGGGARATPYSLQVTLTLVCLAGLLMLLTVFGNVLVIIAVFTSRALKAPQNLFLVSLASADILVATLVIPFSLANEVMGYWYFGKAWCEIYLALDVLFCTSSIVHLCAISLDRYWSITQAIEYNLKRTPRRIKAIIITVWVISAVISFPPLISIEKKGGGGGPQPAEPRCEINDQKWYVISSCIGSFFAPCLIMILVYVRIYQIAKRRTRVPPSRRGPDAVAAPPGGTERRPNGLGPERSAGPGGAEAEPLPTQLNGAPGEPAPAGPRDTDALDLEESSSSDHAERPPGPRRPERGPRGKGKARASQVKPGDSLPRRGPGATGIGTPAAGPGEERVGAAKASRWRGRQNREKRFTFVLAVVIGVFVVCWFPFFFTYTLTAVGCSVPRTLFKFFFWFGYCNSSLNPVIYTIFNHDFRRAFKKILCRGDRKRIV

The target of another assay is Prothrombin (Homo sapiens, UniProt P00734). The format is functional.
Assay [9] addresses T4, Amine oxidase [flavin-containing] A (Homo sapiens, UniProt P21397).
T4 sequence (P21397 whole entry): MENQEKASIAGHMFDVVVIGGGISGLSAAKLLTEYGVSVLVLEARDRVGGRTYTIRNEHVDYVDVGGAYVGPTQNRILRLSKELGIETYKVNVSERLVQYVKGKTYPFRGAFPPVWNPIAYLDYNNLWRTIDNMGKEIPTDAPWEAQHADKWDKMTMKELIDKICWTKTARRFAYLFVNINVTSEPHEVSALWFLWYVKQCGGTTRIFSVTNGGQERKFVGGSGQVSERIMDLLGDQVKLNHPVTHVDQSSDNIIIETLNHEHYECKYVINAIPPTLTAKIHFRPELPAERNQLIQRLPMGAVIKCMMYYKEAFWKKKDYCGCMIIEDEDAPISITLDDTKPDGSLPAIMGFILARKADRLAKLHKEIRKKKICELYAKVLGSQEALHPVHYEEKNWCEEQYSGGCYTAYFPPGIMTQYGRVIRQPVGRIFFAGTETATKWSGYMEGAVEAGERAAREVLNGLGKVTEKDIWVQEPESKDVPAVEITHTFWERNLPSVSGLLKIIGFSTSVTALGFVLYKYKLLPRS
The format is functional.

Another assay addresses Bile salt export pump (Homo sapiens, UniProt O95342). The assay is classed as functional.
In the next assay the target is D(3) dopamine receptor (Homo sapiens, UniProt P35462).
D(3) dopamine receptor, sequence (P35462 whole entry): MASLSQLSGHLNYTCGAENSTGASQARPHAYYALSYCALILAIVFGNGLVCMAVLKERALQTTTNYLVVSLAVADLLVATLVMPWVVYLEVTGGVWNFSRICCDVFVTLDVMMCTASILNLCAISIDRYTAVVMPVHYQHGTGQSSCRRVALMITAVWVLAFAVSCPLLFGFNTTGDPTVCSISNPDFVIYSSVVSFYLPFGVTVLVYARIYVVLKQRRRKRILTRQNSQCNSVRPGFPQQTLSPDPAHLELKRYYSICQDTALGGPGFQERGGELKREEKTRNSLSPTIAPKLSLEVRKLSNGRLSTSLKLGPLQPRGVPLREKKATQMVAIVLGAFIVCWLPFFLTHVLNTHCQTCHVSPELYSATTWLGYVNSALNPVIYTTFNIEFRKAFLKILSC
For assay [10], the target named is Sodium-dependent noradrenaline transporter (Homo sapiens, UniProt P23975).
Sodium-dependent noradrenaline transporter, sequence (P23975 whole entry): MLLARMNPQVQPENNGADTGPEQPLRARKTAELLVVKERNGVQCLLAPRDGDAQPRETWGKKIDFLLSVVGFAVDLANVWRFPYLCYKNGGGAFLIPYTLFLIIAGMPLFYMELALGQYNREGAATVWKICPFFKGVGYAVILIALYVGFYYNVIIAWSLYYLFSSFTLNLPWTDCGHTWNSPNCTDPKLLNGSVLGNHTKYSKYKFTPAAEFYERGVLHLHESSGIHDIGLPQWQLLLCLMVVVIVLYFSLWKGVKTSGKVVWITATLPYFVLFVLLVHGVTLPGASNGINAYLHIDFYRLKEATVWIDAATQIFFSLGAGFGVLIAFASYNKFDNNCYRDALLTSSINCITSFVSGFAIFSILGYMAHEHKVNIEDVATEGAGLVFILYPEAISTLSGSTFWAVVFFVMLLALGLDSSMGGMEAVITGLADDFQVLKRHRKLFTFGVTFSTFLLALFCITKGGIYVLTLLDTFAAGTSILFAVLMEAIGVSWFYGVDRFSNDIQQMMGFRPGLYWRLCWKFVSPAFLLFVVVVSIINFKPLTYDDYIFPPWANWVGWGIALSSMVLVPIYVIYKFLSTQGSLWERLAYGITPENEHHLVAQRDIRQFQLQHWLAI
In assay [11] the target is Prostaglandin G/H synthase 1 (Homo sapiens, UniProt P23219). The assay is classed as functional.
Prostaglandin G/H synthase 1, sequence (P23219 whole entry): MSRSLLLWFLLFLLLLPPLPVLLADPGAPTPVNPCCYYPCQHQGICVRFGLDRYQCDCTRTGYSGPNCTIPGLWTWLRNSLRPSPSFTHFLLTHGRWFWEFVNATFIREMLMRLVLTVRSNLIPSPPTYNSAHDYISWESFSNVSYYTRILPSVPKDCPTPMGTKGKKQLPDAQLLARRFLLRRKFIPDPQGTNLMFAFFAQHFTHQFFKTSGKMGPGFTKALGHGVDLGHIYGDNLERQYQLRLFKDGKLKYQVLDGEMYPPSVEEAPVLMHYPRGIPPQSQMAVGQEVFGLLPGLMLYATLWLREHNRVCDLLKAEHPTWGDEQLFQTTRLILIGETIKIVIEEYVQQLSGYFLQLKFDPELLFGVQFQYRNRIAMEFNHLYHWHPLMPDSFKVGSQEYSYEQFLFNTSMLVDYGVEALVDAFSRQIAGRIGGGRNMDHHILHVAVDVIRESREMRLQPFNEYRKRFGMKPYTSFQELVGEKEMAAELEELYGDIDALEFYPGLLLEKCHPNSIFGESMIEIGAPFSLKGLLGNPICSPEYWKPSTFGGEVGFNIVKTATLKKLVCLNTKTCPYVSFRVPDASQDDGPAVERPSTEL
Assay [12] addresses T5, Muscarinic acetylcholine receptor M2 (Homo sapiens, UniProt P08172).
T5 sequence (P08172 whole entry): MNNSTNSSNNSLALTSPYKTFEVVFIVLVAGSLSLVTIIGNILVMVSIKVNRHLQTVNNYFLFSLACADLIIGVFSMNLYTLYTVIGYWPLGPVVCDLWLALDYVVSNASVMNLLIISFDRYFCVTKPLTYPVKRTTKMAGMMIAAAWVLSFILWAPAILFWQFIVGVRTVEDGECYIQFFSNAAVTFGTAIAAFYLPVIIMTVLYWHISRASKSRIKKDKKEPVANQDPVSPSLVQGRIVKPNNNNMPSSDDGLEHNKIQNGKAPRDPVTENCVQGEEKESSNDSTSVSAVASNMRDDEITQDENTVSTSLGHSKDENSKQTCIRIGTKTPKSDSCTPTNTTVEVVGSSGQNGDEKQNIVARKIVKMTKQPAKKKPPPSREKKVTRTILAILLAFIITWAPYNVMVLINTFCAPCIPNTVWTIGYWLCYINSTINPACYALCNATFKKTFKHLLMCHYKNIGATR

For a further assay, the target named is D(1A) dopamine receptor (Homo sapiens, UniProt P21728).
Further: assay procedure not described here.

Sodium-dependent dopamine transporter, sequence (Q01959 whole entry): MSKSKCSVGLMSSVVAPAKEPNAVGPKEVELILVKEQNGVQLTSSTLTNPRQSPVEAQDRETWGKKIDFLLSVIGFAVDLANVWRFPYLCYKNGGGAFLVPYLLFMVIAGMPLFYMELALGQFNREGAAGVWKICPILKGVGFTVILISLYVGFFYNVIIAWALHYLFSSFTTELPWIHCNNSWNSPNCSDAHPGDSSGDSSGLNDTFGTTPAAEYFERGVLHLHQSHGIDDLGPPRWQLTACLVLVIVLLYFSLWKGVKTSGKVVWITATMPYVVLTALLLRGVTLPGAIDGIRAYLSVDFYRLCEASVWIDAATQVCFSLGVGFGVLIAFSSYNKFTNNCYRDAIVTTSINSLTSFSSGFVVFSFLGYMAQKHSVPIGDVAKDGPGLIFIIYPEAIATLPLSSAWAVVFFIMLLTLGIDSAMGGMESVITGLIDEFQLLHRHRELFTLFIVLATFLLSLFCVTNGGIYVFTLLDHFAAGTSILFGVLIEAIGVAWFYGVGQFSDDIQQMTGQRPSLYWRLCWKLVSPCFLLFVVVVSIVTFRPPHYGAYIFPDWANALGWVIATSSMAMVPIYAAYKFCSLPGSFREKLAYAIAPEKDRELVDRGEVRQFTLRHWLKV
3',5'-cyclic-AMP phosphodiesterase 4A, sequence (P27815 whole entry): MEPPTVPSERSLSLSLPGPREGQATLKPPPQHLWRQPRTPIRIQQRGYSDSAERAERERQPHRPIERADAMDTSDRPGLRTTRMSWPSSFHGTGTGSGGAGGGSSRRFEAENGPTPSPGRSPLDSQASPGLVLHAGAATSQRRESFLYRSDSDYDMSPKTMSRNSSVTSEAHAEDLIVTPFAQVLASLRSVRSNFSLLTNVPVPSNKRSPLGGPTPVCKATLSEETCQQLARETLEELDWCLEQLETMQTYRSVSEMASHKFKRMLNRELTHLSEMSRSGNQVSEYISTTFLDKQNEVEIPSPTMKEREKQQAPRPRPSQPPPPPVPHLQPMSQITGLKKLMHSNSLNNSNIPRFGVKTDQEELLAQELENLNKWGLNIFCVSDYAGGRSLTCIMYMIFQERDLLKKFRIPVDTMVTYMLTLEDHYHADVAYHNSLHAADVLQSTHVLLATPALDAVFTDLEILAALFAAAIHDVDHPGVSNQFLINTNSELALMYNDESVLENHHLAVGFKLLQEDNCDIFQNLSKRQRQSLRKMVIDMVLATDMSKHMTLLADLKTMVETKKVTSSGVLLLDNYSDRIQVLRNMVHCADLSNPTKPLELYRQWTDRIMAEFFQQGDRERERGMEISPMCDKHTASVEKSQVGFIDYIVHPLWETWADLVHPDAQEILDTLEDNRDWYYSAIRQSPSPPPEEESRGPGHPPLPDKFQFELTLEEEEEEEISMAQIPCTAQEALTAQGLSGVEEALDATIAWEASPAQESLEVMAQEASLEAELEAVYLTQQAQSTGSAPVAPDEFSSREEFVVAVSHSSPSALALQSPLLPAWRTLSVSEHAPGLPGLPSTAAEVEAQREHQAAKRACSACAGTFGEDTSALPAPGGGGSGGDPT
cGMP-inhibited 3',5'-cyclic phosphodiesterase 3A, sequence (Q14432 whole entry): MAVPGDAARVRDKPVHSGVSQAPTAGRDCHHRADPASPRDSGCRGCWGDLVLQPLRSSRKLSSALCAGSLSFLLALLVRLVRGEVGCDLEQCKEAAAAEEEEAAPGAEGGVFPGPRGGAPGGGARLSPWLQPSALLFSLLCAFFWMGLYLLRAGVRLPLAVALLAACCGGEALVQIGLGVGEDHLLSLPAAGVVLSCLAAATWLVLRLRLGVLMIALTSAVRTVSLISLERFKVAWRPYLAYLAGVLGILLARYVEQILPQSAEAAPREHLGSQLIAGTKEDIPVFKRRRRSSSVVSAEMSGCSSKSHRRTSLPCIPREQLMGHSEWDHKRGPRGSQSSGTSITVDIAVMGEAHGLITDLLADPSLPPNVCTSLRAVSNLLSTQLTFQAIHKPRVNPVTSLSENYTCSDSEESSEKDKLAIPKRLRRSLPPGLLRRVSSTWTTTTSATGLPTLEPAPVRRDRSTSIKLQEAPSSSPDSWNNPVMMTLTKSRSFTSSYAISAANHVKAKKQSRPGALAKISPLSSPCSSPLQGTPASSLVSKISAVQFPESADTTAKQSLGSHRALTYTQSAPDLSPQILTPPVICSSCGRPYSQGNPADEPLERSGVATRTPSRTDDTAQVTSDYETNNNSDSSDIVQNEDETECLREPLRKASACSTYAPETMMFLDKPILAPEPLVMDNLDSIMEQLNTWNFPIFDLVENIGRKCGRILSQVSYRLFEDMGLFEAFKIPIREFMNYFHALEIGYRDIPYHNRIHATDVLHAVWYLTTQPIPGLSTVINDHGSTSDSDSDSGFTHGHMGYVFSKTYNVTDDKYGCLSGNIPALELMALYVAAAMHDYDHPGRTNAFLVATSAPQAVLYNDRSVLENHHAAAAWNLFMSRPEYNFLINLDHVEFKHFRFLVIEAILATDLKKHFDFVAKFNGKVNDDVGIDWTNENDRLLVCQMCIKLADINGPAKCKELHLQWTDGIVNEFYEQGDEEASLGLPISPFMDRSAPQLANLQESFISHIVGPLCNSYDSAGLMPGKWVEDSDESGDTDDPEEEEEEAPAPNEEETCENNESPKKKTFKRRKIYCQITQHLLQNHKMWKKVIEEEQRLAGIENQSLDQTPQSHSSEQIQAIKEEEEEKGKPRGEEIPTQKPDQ

In the case of `O=C(O)CCCc1ccc(N(CCCl)CCCl)cc1` [CHLORAMBUCIL], the AC50 (in [1]; on Thromboxane A2 receptor [2]; on Thromboxane A2 receptor [3]; in assay [4]; in assay [5]; in assay [6]) was > 30 µM in each case. In addition, the AC50 was > 30 µM in assay [7]; > 30 µM in assay [8]; > 30 µM on Prothrombin; > 30 µM in assay [9]; 270 µM at Bile salt export pump; > 30 µM at D(3) dopamine receptor. In addition, the AC50 (in assay [10]; in assay [11]; in [12]; at D(1A) dopamine receptor) was > 30 µM in each case.

Consider `Cn1c(=O)c2c(ncn2CC(O)CO)n(C)c1=O` (stereo not drawn) [DYPHYLLINE], for which the concentration at half-maximal activity (AC50) (in assay [1]; on Thromboxane A2 receptor [2]; on Thromboxane A2 receptor [3]; in [4]; in assay [5]; in assay [6]) was > 30 µM in each case. Moreover, the AC50 is > 30 µM in [7]; > 30 µM in assay [8]; > 30 µM on Prothrombin; > 30 µM in assay [9]; > 300 µM at Bile salt export pump; > 30 µM at D(3) dopamine receptor. Further, the AC50 (in assay [10]; in [11]; in [12]; on D(1A) dopamine receptor) was > 30 µM each time.

Consider `C#Cc1cccc(Nc2ncnc3cc(OCCOC)c(OCCOC)cc23)c1` [ERLOTINIB], for which the AC50 (in assay [1]; on Thromboxane A2 receptor [2]; on Thromboxane A2 receptor [3]; in [4]; in assay [5]; in [6]) was > 30 µM each time. The AC50 in [7] is > 30 µM; in assay [8], > 30 µM; on Prothrombin it was > 30 µM; in assay [9], > 30 µM; on Bile salt export pump, 6.1 µM; on D(3) dopamine receptor, > 30 µM. In addition, the AC50 is > 30 µM in [10], > 30 µM in assay [11], 13.2 µM in assay [12] and > 10 µM on D(1A) dopamine receptor.

Consider `CCC(=O)O[C@@H](O[P@](=O)(CCCCc1ccccc1)CC(=O)N1C[C@H](C2CCCCC2)C[C@H]1C(=O)O)C(C)C` [FOSINOPRIL], for which the AC50 (in assay [1]; at Thromboxane A2 receptor [2]; on Thromboxane A2 receptor [3]; in assay [4]; in assay [5]; in [6]) was > 30 µM throughout. Moreover, the AC50 in [7] was > 30 µM; in [8] it was > 30 µM; at Prothrombin, > 30 µM; in assay [9], > 30 µM; on Bile salt export pump, 11 µM; at D(3) dopamine receptor, > 30 µM. In addition, the AC50 (in assay [10]; in assay [11]; in [12]; on D(1A) dopamine receptor) was > 30 µM each time.

With `CC(=O)/N=c1/sc(S(N)(=O)=O)nn1C` [METHAZOLAMIDE], the AC50 (in [1]; at Thromboxane A2 receptor [2]; on Thromboxane A2 receptor [3]; in assay [4]; in [5]; in assay [6]) was > 30 µM throughout. For the same molecule, the AC50 is > 30 µM in assay [7]; > 30 µM in [8]; > 30 µM at Prothrombin; > 30 µM in assay [9]; > 300 µM at Bile salt export pump; > 30 µM at D(3) dopamine receptor. Moreover, the AC50 (in assay [10]; in assay [11]; in assay [12]; at D(1A) dopamine receptor) was > 30 µM throughout.

In the case of `CCOc1ccc2ccccc2c1C(=O)N[C@@H]1C(=O)N2[C@@H]1SC(C)(C)[C@@H]2C(=O)O` [NAFCILLIN], the AC50 (in assay [1]; on Thromboxane A2 receptor [2]; on Thromboxane A2 receptor [3]; in assay [4]; in assay [5]; in [6]) was > 30 µM throughout. Besides, the AC50 was > 30 µM in assay [7]; > 30 µM in assay [8]; > 30 µM on Prothrombin; > 30 µM in [9]; 40 µM at Bile salt export pump; > 30 µM at D(3) dopamine receptor. Also, the AC50 (in [10]; in [11]; in assay [12]; on D(1A) dopamine receptor) was > 30 µM in each case.

Regarding `CC(=O)Oc1ccccc1C(=O)Nc1ncc([N+](=O)[O-])s1` [NITAZOXANIDE], the AC50 in assay [1] is > 30 µM; at Thromboxane A2 receptor [2] it was > 10 µM; at Thromboxane A2 receptor [3], > 30 µM; in assay [4] it was > 30 µM; in assay [5] it was > 30 µM; in assay [6], > 30 µM. Further, the half-maximal activity concentration (AC50) in assay [7] is > 30 µM; in assay [8] it was > 30 µM; on Prothrombin, > 30 µM; in assay [9] it was > 30 µM; at Bile salt export pump, 45 µM; on D(3) dopamine receptor, > 30 µM. For the same molecule, the AC50 in [10] is > 30 µM; in assay [11], 9.53 µM; in assay [12], > 30 µM; at D(1A) dopamine receptor, > 30 µM.

`CCCCCCCCCCC[C@@H](C[C@@H]1OC(=O)[C@H]1CCCCCC)OC(=O)[C@H](CC(C)C)NC=O` [ORLISTAT]: the AC50 (in [1]; on Thromboxane A2 receptor [2]; at Thromboxane A2 receptor [3]; in assay [4]; in assay [5]; in [6]) was > 30 µM in each case. The AC50 was > 30 µM in [7]; > 30 µM in assay [8]; > 30 µM at Prothrombin; > 30 µM in assay [9]; > 300 µM at Bile salt export pump; > 30 µM on D(3) dopamine receptor. Moreover, the AC50 (in assay [10]; in assay [11]; in [12]; at D(1A) dopamine receptor) was > 30 µM throughout.
